Experimental data as given in ChEMBL document CHEMBL1145266, “Design, synthesis, and biological activity of potent and selective inhibitors of mast cell tryptase” (Bioorg Med Chem Lett, 2005).

How the values were obtained:
Tryptase beta-1 [1] = target: T1, Tryptase beta-1 (Homo sapiens, UniProt Q15661); assay: In vitro inhibitory activity against tryptase
[2] = Inhibitory concentration against Thrombin was determined
[3] = Inhibitory concentration against Chymase was determined
[4] = Bioavailability in rat using combiPK assay (dose 1 mg/kg i.v.); type: ADME, organism-based; settings: in vivo, iv
[5] = Inhibitory concentration against Trypsin was determined
Tryptase beta-1 [6] = target: T1, Tryptase beta-1; assay: Inhibition concentration against beta tryptase was determined
[7] = Inhibitory concentration against Factor Xa was determined
Tryptase beta-1 [8] = target: T1, Tryptase beta-1; assay: Inhibitory concentration against alpha tryptase was determined
[9] = Bioavailability in rat (combiPK assay) (dose 2 mg/kg p.o.); type: ADME, organism-based; settings: in vivo, po
[10] = Bioavailability in rat using combiPK (dose of 2 mg/kg p.o.); type: ADME, organism-based; settings: in vivo, po
[11] = Bioavailability using combiPK assay in rats at a dose of 1 mg/kg administered intravenously; type: ADME, organism-based; settings: rat, in vivo, iv, read-out: Bioavailabiility
[12] = Bioavailability in rat using combiPK (dose 1 mg/kg i.v.); type: ADME, organism-based; settings: in vivo, iv
[13] = Bioavailability using combiPK assay in rats at a dose of 2 mg/kg administered orally; type: ADME, organism-based; settings: rat, in vivo, po, read-out: Bioavailabiility

T1 sequence (Q15661 whole entry): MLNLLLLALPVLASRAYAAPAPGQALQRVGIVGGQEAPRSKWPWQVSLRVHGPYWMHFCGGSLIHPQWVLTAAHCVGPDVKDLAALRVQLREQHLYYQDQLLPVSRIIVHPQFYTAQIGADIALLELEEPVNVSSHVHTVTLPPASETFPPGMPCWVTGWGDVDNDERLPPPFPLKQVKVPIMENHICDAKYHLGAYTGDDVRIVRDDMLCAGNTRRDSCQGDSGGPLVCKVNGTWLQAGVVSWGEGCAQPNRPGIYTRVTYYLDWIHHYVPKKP

| Compound | Ki (Tryptase beta-1 [1]) | other results |
| --- | --- | --- |
| NCc1cccc(C2CCN(C(=O)c3cn(C(=O)c4cccs4)c4ccccc34)CC2)c1 | 246 nM | – |
| NCc1cccc(C2CCN(C(=O)c3cn(-c4nccs4)c4ccccc34)CC2)c1 | 373 nM | – |
| CCCn1cc(C(=O)N2CCC(c3cccc(CN)c3)CC2)c2cccc(C)c21 | 41 nM | – |
| NCc1cccc(C2CCN(C(=O)c3cn(CC4CC4)c4ccccc34)CC2)c1 | 141 nM | – |
| Cc1ccc2[nH]cc(C(=O)N3CCC(c4cccc(CN)c4)CC3)c2c1 | 101 nM | – |
| NCc1cccc(C2CCN(C(=O)c3cn(CC4CCCCC4)c4ccccc34)CC2)c1 | 497 nM | – |
| Cc1ccc2c(C(=O)N3CCC(c4cccc(CN)c4)CC3)c[nH]c2c1 | > 2000 nM | – |
| NCc1cccc(C2CCN(C(=O)c3cn(-c4cccnc4)c4ccccc34)CC2)c1 | 197 nM | – |
| NCc1cccc(C2CCN(C(=O)c3c[nH]c4c(F)cccc34)CC2)c1 | 368 nM | – |
| CCCCn1cc(C(=O)N2CCC(c3cccc(CN)c3)CC2)c2cccc(C)c21.O=C(O)C(F)(F)F | 68 nM | IC50 [2]: > 10000 nM; IC50 [3]: > 10000 nM; bioavailability [4]: 33%; IC50 [5]: > 10000 nM; IC50 (Tryptase beta-1 [6]): 68 nM; IC50 [7]: > 10000 nM; IC50 (Tryptase beta-1 [8]): 3690 nM |
| CC(C)Cn1cc(C(=O)N2CCC(c3cccc(CN)c3)CC2)c2ccccc21 | 116 nM | – |
| Cc1cccc2[nH]cc(C(=O)N3CCC(c4cccc(CN)c4)CC3)c12 | > 2000 nM | – |
| CS(=O)(=O)n1cc(C(=O)N2CCC(c3cccc(CN)c3)CC2)c2ccccc21 | 162 nM | – |
| CCCCn1cc(C(=O)N2CCC(c3cccc(CN)c3)CC2)c2ccccc21.O=C(O)C(F)(F)F | 49 nM | bioavailability [4]: 9.3%; bioavailability [9]: 9.3% |
| CCn1cc(C(=O)N2CCC(c3cccc(CN)c3)CC2)c2cccc(C)c21.O=C(O)C(F)(F)F | 41 nM | bioavailability [4]: 26%; bioavailability [9]: 26% |
| COCCn1cc(C(=O)N2CCC(c3cccc(CN)c3)CC2)c2cccc(C)c21 | 32 nM | – |
| Cn1cc(C(=O)N2CCC(c3cccc(CN)c3)CC2)c2ccccc21 | 155 nM | – |
| Cc1cccc2c(C(=O)N3CCC(c4cccc(CN)c4)CC3)c[nH]c12.O=C(O)C(F)(F)F | 61 nM | bioavailability [10]: 19%; bioavailability [11]: 19% |
| NCc1cccc(C2CCN(C(=O)c3c[nH]c4ccccc34)CC2)c1.O=C(O)C(F)(F)F | 290 nM | bioavailability [12]: 22%; bioavailability [13]: 22% |
| CCn1cc(C(=O)N2CCC(c3cccc(CN)c3)CC2)c2ccccc21.O=C(O)C(F)(F)F | 124 nM | bioavailability [4]: 11%; bioavailability [9]: 11% |
| CCCn1cc(C(=O)N2CCC(c3cccc(CN)c3)CC2)c2ccccc21 | 185 nM | – |
| CC(=O)n1cc(C(=O)N2CCC(c3cccc(CN)c3)CC2)c2ccccc21 | 240 nM | – |
| NCc1cccc(C2CCN(C(=O)c3cn(S(=O)(=O)c4ccccc4)c4ccccc34)CC2)c1.O=C(O)C(F)(F)F | 128 nM | bioavailability [10]: 17%; bioavailability [12]: 17% |
| CC(C)n1cc(C(=O)N2CCC(c3cccc(CN)c3)CC2)c2ccccc21 | 310 nM | – |
| CCCCCCn1cc(C(=O)N2CCC(c3cccc(CN)c3)CC2)c2ccccc21 | 125 nM | – |
| COCCn1cc(C(=O)N2CCC(c3cccc(CN)c3)CC2)c2ccccc21 | 57 nM | – |
